Where two headings read alike, the source gives them in different places.
Key:
AT-1 = assay: Potentiation of daunorubicin (30 nM) in rat prostatic tumor cells AT-1 (cell survival, Coulter counter); type: cell-based
HCT-15 = assay: Potentiation of daunorubicin (50 nM) in human colon tumor cells HCT-15 (cell survival, Coulter counter); type: cell-based; settings: HCT-15, read-out: IC50, HCT-15 (concentration required to reduce cell survival by 50%)
HCT-15 cells = assay: In vivo HCT-15 subcutaneous xenograft in SCID mice, doxorubicin alone or plus compound 1:1; design: Significance (p) of difference in tumor growth between (1) vehicle and (2) doxorubicin, symbol * / Significance (p) of difference in tumor growth between (1) vehicle and (2) doxorubicin, symbol ***: dose or concentration left out as unconfirmed; settings: days 9, 13, 17
[1] = cited from earlier work
tumors = settings: animal models; cited from earlier work
[2] = with daunorubicin 30 nM, 24 h, then 96 h drug free, AT-1, read-out: IC50, AT-1 (concentration required to reduce cell survival by 50%)

## CCCCN(CCCC)CCCNC(=O)OC1CC[C@@]2(C)C(=CC[C@H]3[C@@H]4CC[C@H](C(C)=O)[C@@]4(C)CC[C@@H]32)C1 (stereo partly shown) [1:4, pregn-5-ene-20-one-3-yl, N-(3-dibutylamino-propyl)-carbamate]
AT-1; [2]
  IC50: 190 nM

## CCCCN(CCCC)CCCNC(=O)OC(C)[C@H]1CC[C@H]2[C@@H]3CCC4=CC(=O)CC[C@]4(C)[C@H]3CC[C@]12C (stereo partly shown) [1:13, pregn-4-ene-3-one-20-yl, N-(3-dibutylamino-propyl)-carbamate]
AT-1; [2]
  IC50: 210 nM

## CC(=O)[C@H]1CC[C@H]2[C@@H]3CCC4=CC(=O)CC[C@]4(C)[C@H]3C(OC(=O)N(Cc3ccccc3)Cc3ccccc3)C[C@]12C (stereo partly shown) [1:35, pregn-4-ene-3,20-dione-11-yl, N,N-dibenzyl-carbamate]
AT-1; [2]
  IC50: 150 nM

## CCCCN(CCCC)C(=O)OC1C[C@]2(C)[C@@H](C(C)=O)CC[C@H]2[C@@H]2CCC3=CC(=O)CC[C@]3(C)[C@@H]12 (stereo partly shown) [Compound 1:1, pregn-4-ene-3,20-dione-11-yl, N,N-dibutylcarbamate]
AT-1; [2]
  IC50: 760 nM
HCT-15; with daunorubicin 50 nM, 24 h, then 96 h drug free
  IC50: 510 nM
HCT-15 cells; compound 1:1 400 mg/kg p.o. 2 hours before doxorubicin i.v.
  Potentiating effect in vivo: potentiating effect

## COc1ccc(CCN(C)CCCC2(c3ccc4ccccc4c3)SCCCS2)cc1OC [RO 11-2933]
[1]
  In vivo activity in combination with doxorubicin: in vivo activity

## COc1cccc2c1C(=O)c1c(O)c3c(c(O)c1C2=O)C[C@@](O)(C(=O)CO)C[C@@H]3O[C@H]1C[C@H](N)[C@H](O)[C@H](C)O1 [doxorubicin]
HCT-15 cells; doxorubicin i.v., symbol *
  Significance (p) of difference in tumor growth between (1) vehicle and (2) doxorubicin, symbol *: < 0.05
HCT-15 cells; doxorubicin i.v., symbol ***
  Significance (p) of difference in tumor growth between (1) vehicle and (2) doxorubicin, symbol ***: < 0.005

## CC12CCC3c4ccc(OC(=O)N(CCCl)CCCl)cc4CCC3C1CCC2O (stereo not shown) [estramustine]
HCT-15
  IC50: > 2500 nM
tumors
  Potentiation of radiation effects on tumors: potentiate radiation effects on tumors

## COc1ccc(CCN(C)CCCC(C#N)(c2ccc(OC)c(OC)c2)C(C)C)cc1OC (stereo not shown) [verapamil]
AT-1; read-out: IC50, AT-1 (concentration required to reduce cell survival by 50%)
  IC50: 740 nM
HCT-15
  IC50: 500 nM
